What all share (assay type): functional
Common to all, as to settings: Homo sapiens

Assay [1] has as its system E6SM. The assay is described as follows: Tested for minimum inhibitory concentration against HSV-2 ([…] strain) in E6SM cells.
The subject of assay [2] is E6SM. The assay is described as follows: Tested for minimum inhibitory concentration against HSV-1 (KOS strain) in E6SM cells.
Assay [3] relates to HeLa. The assay is described as follows: Tested for minimum inhibitor concentration against RSV in HeLa cells.
In assay [4] the test system is E6SM. The assay is described as follows: Tested for minimum cytotoxic concentration on virus-induced cytopathicity in E6SM cells.
Assay [5] relates to E6SM. Description: Tested for minimum inhibitor concentration against vesicular stomatitis virus (VSV) in E6SM cells.
Assay [6] deals with HeLa. The assay is described as follows: Tested for minimum cytotoxic concentration on RSV (respiratory syncytial virus)-induced cytopathicity in HeLa cells.
Assay [7] deals with E6SM. Description: Tested for minimum inhibitory concentration against Vaccinia virus in E6SM cells.
The subject of assay [8] is HeLa. The assay is described as follows: Tested for minimum inhibitory concentration against RSV in HeLa cells.
In assay [9] the test system is E6SM. The assay is described as follows: Tested for minimum inhibitory concentration against vesicular stomatitis virus (VSV) in E6SM cells.
The test system of assay [10] is E6SM. The assay is described as follows: Tested for minimum inhibitory concentration against vesicular stomatitis virus (VSV) in E6SM cells.
The test system of assay [11] is E6SM. Description: Tested for minimum inhibitor concentration against vesicular stomatitis virus (VSV) in E6SM cells.
Assay [12] deals with HeLa. Description: Tested for minimum inhibitory concentration against RSV (respiratory syncytial virus) in HeLa cells.

In brackets after ≈: the same amount, converted by molar mass.

On to `C=Cc1nc2c(N)ncnc2n1C1CCC(CO)O1` (configuration not stated), for which the MIC against E6SM [1] was more than 20 µg/mL; in the assay on E6SM [2] it was more than 100 µg/mL.
As for `CCc1nc(N)c2ncn(C3O[C@H](CO)[C@@H](O)[C@H]3O)c2n1` (some centres not stated), the MIC was 0.8 µg/mL (≈ 2.71 µM) with HeLa [3], more than 10 µg/mL in the assay on E6SM [2], more than 10 µg/mL in the assay on E6SM [5] and 7 µg/mL (≈ 23.7 µM) in the assay on E6SM [7]. The MCC is more than 10 µg/mL in the assay on E6SM [4] and 4 µg/mL in the assay on HeLa [6].
Turning to `C=Cc1ncnc2c1ncn2C1O[C@H](CO)[C@@H](O)[C@H]1O` (some centres not stated), the MIC is more than 4 µg/mL with HeLa [8], more than 4 µg/mL with E6SM [9], 2 µg/mL (≈ 7.19 µM) in the assay on E6SM [2] and more than 4 µg/mL with E6SM [7]. The MCC with E6SM [4] stood at 10 µg/mL; in the assay with HeLa [6], 4 µg/mL.
In the case of `Nc1nccc2c1ncn2[C@@H]1O[C@H](CO)[C@@H](O)[C@H]1O`, the values for the MIC against E6SM [10], against E6SM [2] and against E6SM [7] were 0.7 µg/mL (≈ 2.63 µM), more than 400 µg/mL and 2 µg/mL (≈ 7.51 µM), respectively. The molecule also displayed an MCC in the assay with E6SM [4] of more than 400 µg/mL.
In the assay on E6SM [4], `NC(=O)c1ncn([C@@H]2O[C@H](CO)[C@@H](O)[C@H]2O)n1` [RIBAVIRIN] came in with an MCC of more than 400 µg/mL. Further, the values for the MIC in the assay on E6SM [2], with E6SM [5] and with E6SM [7] were more than 300 µg/mL, 20 µg/mL (≈ 81.9 µM) and 70 µg/mL (≈ 287 µM), respectively.
Consider `Cc1nc2c(N)ncnc2n1C1O[C@H](CO)[C@@H](O)[C@H]1O` (some centres not stated), for which the MIC against E6SM [10] is more than 200 µg/mL; in the assay on HeLa [8], 4 µg/mL (≈ 14.2 µM); against E6SM [2], more than 100 µg/mL; in the assay on E6SM [7] it was 0.2 µg/mL (≈ 0.711 µM). Besides, the MCC in the assay with E6SM [4] was more than 200 µg/mL; with HeLa [6] it was 20 µg/mL.
In the assay with E6SM [4], `O=c1[nH]c(=O)n([C@H]2C[C@H](O)[C@@H](CO)O2)cc1/C=C/Br` [BRIVUDINE] displayed an MCC of more than 400 µg/mL. The MIC in the assay on E6SM [2] is 0.02 µg/mL (≈ 0.06 µM); in the assay on E6SM [11], more than 400 µg/mL; with E6SM [7], 0.4 µg/mL (≈ 1.2 µM).
As for `C=Cc1nc2c(N)ncnc2n1[C@@H]1O[C@H](CO)[C@@H](O)[C@H]1O`, the MIC against HeLa [8] was 4 µg/mL (≈ 13.6 µM); in the assay on E6SM [1], 40 µg/mL (≈ 136 µM); in the assay with E6SM [2] it was 2 µg/mL (≈ 6.82 µM); in the assay with E6SM [7], 7 µg/mL (≈ 23.9 µM). In addition, the MCC was more than 400 µg/mL in the assay on E6SM [4] and 70 µg/mL in the assay with HeLa [6].
Turning to `CCc1nc2c(N)ncnc2n1C1O[C@H](CO)[C@@H](O)[C@H]1O` (some centres not stated), the MIC with E6SM [10] was more than 200 µg/mL; in the assay with HeLa [8], 10 µg/mL (≈ 33.9 µM); with E6SM [2], more than 100 µg/mL; against E6SM [7] it was 0.2 µg/mL (≈ 0.677 µM). The results for the MCC in the assay with E6SM [4] and in the assay with HeLa [6] were more than 100 µg/mL and 100 µg/mL, respectively.
`Cc1ncnc2c1ncn2[C@@H]1O[C@H](CO)[C@@H](O)[C@H]1O`: the MCC with E6SM [4] is 1 µg/mL; in the assay with HeLa [6] it was 0.8 µg/mL. In addition, the MIC with E6SM [9] stood at 0.4 µg/mL (≈ 1.5 µM); in the assay with E6SM [2], 0.4 µg/mL (≈ 1.5 µM); in the assay on HeLa [12], 0.4 µg/mL (≈ 1.5 µM); against E6SM [7] it was 0.04 µg/mL (≈ 0.15 µM).
With `Cc1nc2c(N)ncnc2n1C1CCC(CO)O1` (configuration not stated), the results for the MIC in the assay on E6SM [1] and in the assay with E6SM [2] were more than 20 µg/mL and more than 100 µg/mL, respectively.

Values taken from ChEMBL document CHEMBL1126836, “Antiviral activity of C-alkylated purine nucleosides obtained by cross-coupling with tetraalkyltin reagents” (1993).
